ChEMBL document CHEMBL4483862, “Open-source discovery of chemical leads for next-generation chemoprotective antimalarials” (2018)

System: Plasmodium berghei
Assay: Luciferase/luciferin-expressing antifolate-resistant parasites were used to infect a culture of HepG2 cells that were pre-incubated with compounds. Infected hepatocytes emit light due to the luciferase reaction. Assay results are presented as the percent inhibition of light emission compared to control. […]
Type: functional
Conditions: sporozoite; for IC90: read-out: LUCIFERASE INFECTION ASSAY - IC90

Structure (SMILES)	IC90 [µM]	other results
Cc1noc(/C=C/c2nn(C)cc2Cl)c1[N+](=O)[O-]	11.7	IC50 (HEPG2TOX_HILL_SLOPE 8.49, HEPG2TOX_R_SQUARED 0.211, PBLUC_HILL_SLOPE 2.15, PBLUC_R_SQUARED 0.722, read-out: LUCIFERASE INFECTION ASSAY - IC50): 4.22 µM
C[n+]1c(-c2ccccc2)cc(CCCCc2cc(-c3ccccc3)[n+](C)c(-c3ccccc3)c2)cc1-c1ccccc1	> 10	IC50 (HEPG2TOX_HILL_SLOPE 8.54, HEPG2TOX_R_SQUARED 0.649, PBLUC_HILL_SLOPE 17.9, PBLUC_R_SQUARED 0.599, read-out: LUCIFERASE INFECTION ASSAY - IC50): 9.47 µM
C=CCNc1nc2cc(-c3ccccc3C)sc2c(=O)n1C	> 10.6	IC50 (HEPG2TOX_HILL_SLOPE 8.49, HEPG2TOX_R_SQUARED 0.617, read-out: LUCIFERASE INFECTION ASSAY - IC50): > 10.6 µM
COc1ccc(-c2cnc(N)c(-c3ccc(O)c(OC)c3)c2)cc1	3.77	IC50 (HEPG2TOX_HILL_SLOPE 8.61, HEPG2TOX_R_SQUARED 0.753, PBLUC_HILL_SLOPE 13.4, PBLUC_R_SQUARED 0.628, read-out: LUCIFERASE INFECTION ASSAY - IC50): 3.2 µM
Cc1cccc(-c2nc3ccnc(Nc4ccc(C(C)C)cc4)c3[nH]2)c1	> 10	IC50 (HEPG2TOX_HILL_SLOPE 8.42, HEPG2TOX_R_SQUARED 0.9, PBLUC_HILL_SLOPE 13.4, PBLUC_R_SQUARED 0.519, read-out: LUCIFERASE INFECTION ASSAY - IC50): 8.58 µM
O=C(Nc1ccc(OC(F)(F)F)cc1)Nc1ccc(Sc2ccccc2)nc1Sc1ccccc1	1.18	IC50 (HEPG2TOX_HILL_SLOPE 8.48, HEPG2TOX_R_SQUARED 0.476, PBLUC_HILL_SLOPE 1.76, PBLUC_R_SQUARED 0.832, read-out: LUCIFERASE INFECTION ASSAY - IC50): 0.339 µM
COc1cc(OC)c(C2NC(=O)c3ccc(Cl)cc3N2)cc1OC (configuration not stated)	> 10	IC50 (HEPG2TOX_HILL_SLOPE 8.48, HEPG2TOX_R_SQUARED 0.352, read-out: LUCIFERASE INFECTION ASSAY - IC50): > 10 µM
COc1cc(OC)cc(C(=O)Nc2nc3ccc(C)cn3c2C(=O)NC2CCCC2)c1	6.19	IC50 (HEPG2TOX_HILL_SLOPE 8.61, HEPG2TOX_R_SQUARED 0.625, PBLUC_HILL_SLOPE 3.28, PBLUC_R_SQUARED 0.589, read-out: LUCIFERASE INFECTION ASSAY - IC50): 3.16 µM
Cc1ccc2nc(NC(=O)c3cc(F)ccc3F)c(C(=O)NCC(C)C)n2c1	3.13	IC50 (HEPG2TOX_HILL_SLOPE 8.58, HEPG2TOX_R_SQUARED 0.935, PBLUC_HILL_SLOPE 15.1, PBLUC_R_SQUARED 0.738, read-out: LUCIFERASE INFECTION ASSAY - IC50): 2.71 µM
O=C(NCc1sccc1CSc1ccc(Cl)cc1)Nc1cccc(C(F)(F)F)c1	5.08	IC50 (HEPG2TOX_HILL_SLOPE 8.54, HEPG2TOX_R_SQUARED 0.938, PBLUC_HILL_SLOPE 7.51, PBLUC_R_SQUARED 0.41, read-out: LUCIFERASE INFECTION ASSAY - IC50): 3.79 µM
CN(C)S(=O)(=O)c1ccc(N2CCCC2)c(C(=O)Nc2nc(-c3ccccn3)cs2)c1	9.7	IC50 (HEPG2TOX_HILL_SLOPE 8.6, HEPG2TOX_R_SQUARED 0.463, PBLUC_HILL_SLOPE 5.89, PBLUC_R_SQUARED 0.378, read-out: LUCIFERASE INFECTION ASSAY - IC50): 6.68 µM
CS(=O)(=O)Nc1ccc(-c2csc(NC(=O)c3sc4sccc4c3Cl)n2)cc1	9.72	IC50 (HEPG2TOX_HILL_SLOPE 8.43, HEPG2TOX_R_SQUARED 0.307, PBLUC_HILL_SLOPE 11.2, PBLUC_R_SQUARED 0.136, read-out: LUCIFERASE INFECTION ASSAY - IC50): 7.99 µM
CC(=O)c1cccc(-c2cnc3ccc(-c4cccc(C(F)(F)F)c4)nn23)c1	4.27	IC50 (HEPG2TOX_HILL_SLOPE 8.49, HEPG2TOX_R_SQUARED 0.595, PBLUC_HILL_SLOPE 2.29, PBLUC_R_SQUARED 0.849, read-out: LUCIFERASE INFECTION ASSAY - IC50): 1.64 µM
O=C(NC1CC1)c1ccc(-c2cnc3c(Nc4cccc(OC(F)(F)C(F)F)c4)nccn23)cc1	2.49	IC50 (HEPG2TOX_HILL_SLOPE 8.49, HEPG2TOX_R_SQUARED 0.235, PBLUC_HILL_SLOPE 3.35, PBLUC_R_SQUARED 0.643, read-out: LUCIFERASE INFECTION ASSAY - IC50): 1.29 µM
Clc1ccc(CSC2=NNC(c3ccccn3)S2)cc1 (configuration not stated)	9.43	IC50 (HEPG2TOX_HILL_SLOPE 8.57, HEPG2TOX_R_SQUARED 0.799, PBLUC_HILL_SLOPE 12, PBLUC_R_SQUARED 0.743, read-out: LUCIFERASE INFECTION ASSAY - IC50): 7.86 µM
Cc1cc(-c2ccccc2)c(-c2nc3ccccc3[nH]2)[nH]1	1.38	IC50 (HEPG2TOX_HILL_SLOPE 8.44, HEPG2TOX_R_SQUARED 0.516, PBLUC_HILL_SLOPE 11.1, PBLUC_R_SQUARED 0.785, read-out: LUCIFERASE INFECTION ASSAY - IC50): 1.13 µM

Structure (SMILES)	IC90 [µM]	other results
Cc1cc(C(=O)COC(=O)c2ccccc2S(=O)(=O)N(C)c2ccccc2)c(C)n1C1CC1	> 10	IC50 (HEPG2TOX_HILL_SLOPE 8.61, HEPG2TOX_R_SQUARED 0.607, read-out: LUCIFERASE INFECTION ASSAY - IC50): > 10 µM
O=C(Nc1cc(C(F)(F)F)cc(C(F)(F)F)c1)Nc1cnn(-c2ccccc2)c1C(F)(F)F	2.67	IC50 (HEPG2TOX_HILL_SLOPE 8.4, HEPG2TOX_R_SQUARED 0.935, PBLUC_HILL_SLOPE 10.9, PBLUC_R_SQUARED 0.166, read-out: LUCIFERASE INFECTION ASSAY - IC50): 2.19 µM
CCOc1cc(C(=O)N/N=C/c2c(C)[nH]c3ccccc23)cc(OCC)c1OCC	> 10	IC50 (HEPG2TOX_HILL_SLOPE 8.54, 2.60, HEPG2TOX_R_SQUARED 0.0840, 0.979, PBLUC_HILL_SLOPE 9.58, PBLUC_R_SQUARED 0.194, read-out: LUCIFERASE INFECTION ASSAY - IC50): 9.1 µM
COc1ccc(Cn2nc(-c3ccccc3)cc2-c2ccccc2O)cc1	1.33	IC50 (HEPG2TOX_HILL_SLOPE 8.58, HEPG2TOX_R_SQUARED 0.567, PBLUC_HILL_SLOPE 13.6, PBLUC_R_SQUARED 0.554, read-out: LUCIFERASE INFECTION ASSAY - IC50): 1.13 µM
Cc1cc(-c2ccccc2)nc2c1/C(=N\O)CC(C)(C)C2	> 11.8	IC50 (HEPG2TOX_HILL_SLOPE 8.55, HEPG2TOX_R_SQUARED 0.808, PBLUC_HILL_SLOPE 3.52, PBLUC_R_SQUARED 0.12, read-out: LUCIFERASE INFECTION ASSAY - IC50): 8.87 µM
COc1ccc(-c2c(C)nn3c(NCc4ccccn4)cc(C)nc23)cc1OC	7.49	IC50 (HEPG2TOX_HILL_SLOPE 8.52, HEPG2TOX_R_SQUARED 0.776, PBLUC_HILL_SLOPE 1.28, PBLUC_R_SQUARED 0.799, read-out: LUCIFERASE INFECTION ASSAY - IC50): 1.34 µM
COc1ccccc1-c1nc2c3c(C)c(C)n(-c4ccccc4OC)c3ncn2n1	7.51	IC50 (HEPG2TOX_HILL_SLOPE 8.61, HEPG2TOX_R_SQUARED 0.202, PBLUC_HILL_SLOPE 3.56, PBLUC_R_SQUARED 0.654, read-out: LUCIFERASE INFECTION ASSAY - IC50): 4.05 µM
COc1ccc(CCN2C(=O)N(C(C)C)C(=O)C23CCN(Cc2cc4ccccc4[nH]2)CC3)cc1	6.63	IC50 (HEPG2TOX_HILL_SLOPE 8.55, HEPG2TOX_R_SQUARED 0.942, PBLUC_HILL_SLOPE 15.5, PBLUC_R_SQUARED 0.628, read-out: LUCIFERASE INFECTION ASSAY - IC50): 5.75 µM
OC(c1cc(C(F)(F)F)cc(C(F)(F)F)c1)c1cc(C(F)(F)F)cc(C(F)(F)F)c1	> 7.23	IC50 (HEPG2TOX_HILL_SLOPE 8.63, HEPG2TOX_R_SQUARED 0.166, read-out: LUCIFERASE INFECTION ASSAY - IC50): > 7.23 µM
CC(C)(C)c1ccc(-c2csc(NC(=O)c3cnccn3)n2)cc1	> 10	IC50 (HEPG2TOX_HILL_SLOPE 8.57, HEPG2TOX_R_SQUARED 0.595, PBLUC_HILL_SLOPE 12.7, PBLUC_R_SQUARED 0.201, read-out: LUCIFERASE INFECTION ASSAY - IC50): 9.05 µM
COc1cc(-c2cnc3c(Nc4cccc(OC(F)(F)C(F)F)c4)nccn23)cc(OC)c1OC	5.38	IC50 (HEPG2TOX_HILL_SLOPE 8.4, HEPG2TOX_R_SQUARED 0.356, PBLUC_HILL_SLOPE 3.39, PBLUC_R_SQUARED 0.397, read-out: LUCIFERASE INFECTION ASSAY - IC50): 2.81 µM
OC(CN1CC=C(c2c[nH]c3ccccc23)CC1)c1ccccc1 (configuration not stated)	> 10	IC50 (HEPG2TOX_HILL_SLOPE 8.59, HEPG2TOX_R_SQUARED 0.892, PBLUC_HILL_SLOPE 2.5, PBLUC_R_SQUARED 0.397, read-out: LUCIFERASE INFECTION ASSAY - IC50): 5.3 µM
CS(=O)(=O)Nc1cccc(CNC(=O)c2cccc3c4c([nH]c23)CCCC4)c1	> 10	IC50 (HEPG2TOX_HILL_SLOPE 8.62, HEPG2TOX_R_SQUARED 0.723, PBLUC_HILL_SLOPE 1.82, PBLUC_R_SQUARED 0.711, read-out: LUCIFERASE INFECTION ASSAY - IC50): 5.31 µM
N#Cc1ccc(-c2cnc3ccc(NCc4ccc(S(N)(=O)=O)cc4)nn23)cc1	3.66	IC50 (HEPG2TOX_HILL_SLOPE 8.58, HEPG2TOX_R_SQUARED 0.551, PBLUC_HILL_SLOPE 11.6, PBLUC_R_SQUARED 0.236, read-out: LUCIFERASE INFECTION ASSAY - IC50): 3.03 µM
CC(C)c1ccc(N2C(=O)C=CC2=O)cc1	> 15.3	IC50 (HEPG2TOX_HILL_SLOPE 8.61, HEPG2TOX_R_SQUARED 0.25, PBLUC_HILL_SLOPE 3.82, PBLUC_R_SQUARED 0.327, read-out: LUCIFERASE INFECTION ASSAY - IC50): 9.69 µM
